Data taken from patent US9481676B2, “Azepino[4,5-B]indoles and methods of use” (Medivation Technologies, Inc., priority 2008, dated 2016).

Tests used:
[1] = molecular target: T1, human recombinant histamine H2 receptor (Homo sapiens, UniProt P25021); test: Histamine H2 radioligand binding ([125I]Aminopotentidine); conditions: compound at 1 μM; read-out: Histamine Binding (1 μM) H2, percent inhibition of specific binding
T1 construct: expressed in transfected cells; host or cells: CHO-K1 cells
In short: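 Membranes from CHO-K1 cells expressing recombinant human H2 receptor, in 50 mM phosphate buffer pH 7.4, incubated with 0.1 nM [125I]aminopotentidine for 120 min at 25 °C; nonspecific binding defined with 3 μM tiotidine.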

[2] = molecular target: T2, human recombinant histamine H1 receptor (Homo sapiens, UniProt P35367); test: Histamine H1 radioligand binding ([3H]Pyrilamine); conditions: compound at 1 μM; read-out: Histamine Binding (1 μM) H1, percent inhibition of specific binding
T2 construct: expressed in transfected cells; host or cells: CHO cells
In short: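 Membranes from CHO cells expressing the receptor were incubated with compound and 1.2 nM [3H]pyrilamine for 180 min at 25 °C in 50 mM Tris-HCl pH 7.4 with MgCl2, NaCl and sucrose; 1 μM pyrilamine defined non-specific binding. Filter-bound radioactivity was counted.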

T1 sequence (P25021 whole entry): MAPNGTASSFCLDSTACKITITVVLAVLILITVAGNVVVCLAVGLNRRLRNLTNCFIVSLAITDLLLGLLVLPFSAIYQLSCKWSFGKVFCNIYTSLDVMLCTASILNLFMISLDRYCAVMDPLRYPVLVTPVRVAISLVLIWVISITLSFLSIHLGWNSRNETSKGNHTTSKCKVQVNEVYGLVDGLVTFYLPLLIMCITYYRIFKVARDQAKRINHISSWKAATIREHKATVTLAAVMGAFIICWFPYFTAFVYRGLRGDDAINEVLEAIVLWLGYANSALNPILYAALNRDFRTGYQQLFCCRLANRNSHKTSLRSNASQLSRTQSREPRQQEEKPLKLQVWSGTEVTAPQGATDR
T2 sequence (P35367 whole entry): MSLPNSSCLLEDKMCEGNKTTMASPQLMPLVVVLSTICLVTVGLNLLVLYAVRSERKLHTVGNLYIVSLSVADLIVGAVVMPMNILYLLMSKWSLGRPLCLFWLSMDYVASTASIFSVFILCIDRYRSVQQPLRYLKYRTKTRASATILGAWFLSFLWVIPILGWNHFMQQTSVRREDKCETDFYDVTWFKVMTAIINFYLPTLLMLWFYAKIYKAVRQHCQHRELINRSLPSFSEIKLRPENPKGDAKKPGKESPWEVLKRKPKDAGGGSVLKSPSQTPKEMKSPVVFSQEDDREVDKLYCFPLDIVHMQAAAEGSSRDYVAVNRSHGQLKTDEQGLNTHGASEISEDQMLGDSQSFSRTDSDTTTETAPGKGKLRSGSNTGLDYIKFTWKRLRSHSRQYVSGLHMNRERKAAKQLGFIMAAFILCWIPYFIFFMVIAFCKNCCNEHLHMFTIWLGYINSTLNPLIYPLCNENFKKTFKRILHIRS

Structure (SMILES) | inhibition at 1 µM [1] | inhibition at 1 µM [2]
Cc1ccc2c(c1)c1c(n2CC(=O)NC(C)C)CCN(C)CC1 [Compound No. 54, 2-(2,3,4,5-tetrahydro-3,9-dimethylazepino[4,5-b]indol-6(1H)-yl)-N-isopropylacetamide] | -3% | 18%
Cc1ccc2c(c1)c1c(n2CC(=O)OC2CCCC2)CCN(C)CC1 [Compound No. 55, Cyclopentyl-2-(2,3,4,5-tetrahydro-3,9-dimethylazepino[4,5-b]indol-6(1H)-yl)acetate] | -3% | 15%
CN1CCc2c(n(CCc3ccccc3)c3ccc(Cl)cc23)CC1 [Compound No. 56, 9-chloro-1,2,3,4,5,6-hexahydro-3-methyl-6-phenethylazepino[4,5-b]indole] | 74% | 105%
CN1CCc2c(n(CC(=O)N3CCCCC3)c3ccc(Cl)cc23)CC1 [Compound No. 57, 2-(9-chloro-2,3,4,5-tetrahydro-3-methylazepino[4,5-b]indol-6(1H)-yl)-1-(piperidin-1-yl)ethanone] | 1% | 8%
CN1CCc2c(n(CC(O)c3ccc(F)c(F)c3)c3ccc(Cl)cc23)CC1 (stereo not drawn) [Compound No. 58, 2-(9-chloro-2,3,4,5-tetrahydro-3-methylazepino[4,5-b]indol-6(1H)-yl)-1-(3,4-difluorophenyl)ethanol] | 91% | 98%
Cc1ccc2c(c1)c1c(n2CC(O)c2ccc(F)cc2F)CCN(C)CC1 (stereo not drawn) [Compound No. 59, 1-(2,4-difluorophenyl)-2-(2,3,4,5-tetrahydro-3,9-dimethylazepino[4,5-b]indol-6(1H)-yl)ethanol] | 37% | 60%
CN1CCc2c(n(CC(=O)N3CCOCC3)c3ccc(Cl)cc23)CC1 [Compound No. 60, 2-(9-chloro-2,3,4,5-tetrahydro-3-methylazepino[4,5-b]indol-6(1H)-yl)-1-morpholinoethanone] | 6% | 2%
CN1CCc2c(n(CCc3ccccc3F)c3ccc(Cl)cc23)CC1 [Compound No. 61, 6-(2-fluorophenethyl)-9-chloro-1,2,3,4,5,6-hexahydro-3-methylazepino[4,5-b]indole] | 89% | 97%
Cc1ccc2c(c1)c1c(n2CCc2ccccc2)CCN(C)CC1 [Compound No. 62, 1,2,3,4,5,6-hexahydro-3,9-dimethyl-6-phenethylazepino[4,5-b]indole] | 79% | 98%
Cc1ccc2c(c1)c1c(n2CCc2ccccc2F)CCN(C)CC1 [Compound No. 63, 6-(2-fluorophenethyl)-1,2,3,4,5,6-hexahydro-3,9-dimethylazepino[4,5-b]indole] | 83% | 99%
COc1ccc(C(O)Cn2c3c(c4cc(Cl)ccc42)CCN(C)CC3)cc1F (stereo not drawn) [Compound No. 67, 2-(9-chloro-2,3,4,5-tetrahydro-3-methylazepino[4,5-b]indol-6(1H)-yl)-1-(3-fluoro-4-methoxyphenyl) ethanol] | 72% | 100%
COc1ccc(C(O)Cn2c3c(c4cc(C)ccc42)CCN(C)CC3)cc1F (stereo not drawn) [Compound No. 68, 1-(3-fluoro-4-methoxyphenyl)-2-(2,3,4,5-tetrahydro-3,9-dimethylazepino[4,5-b]indol-6(1H)-yl)ethanol] | 69% | 102%
Cc1ccc2c(c1)c1c(n2CCc2ccccc2Cl)CCN(C)CC1 [Compound No. 69, 6-(2-chlorophenethyl)-1,2,3,4,5,6-hexahydro-3,9-dimethylazepino[4,5-b]indole] | -9% | 2%
CN1CCc2c(n(CC(=O)N3CCNCC3)c3ccc(Cl)cc23)CC1 [Compound No. 72, 2-(9-chloro-2,3,4,5-tetrahydro-3-methylazepino[4,5-b]indol-6(1H)-yl)-1-(piperazin-1-yl)ethanone] | 0% | -12%
CN1CCc2c(n(CC(=O)Nc3ccccc3)c3ccc(Cl)cc23)CC1 [Compound No. 73, 2-(9-chloro-2,3,4,5-tetrahydro-3-methylazepino[4,5-b]indol-6(1H)-yl)-N-phenylacetamide] | -5% | 18%
CN1CCc2c(n(CC(=O)N(C)C3CCCCC3)c3ccc(Cl)cc23)CC1 [Compound No. 74, 2-(9-chloro-2,3,4,5-tetrahydro-3-methylazepino[4,5-b]indol-6(1H)-yl)-N-cyclohexyl-N-methylacetamide] | 9% | 25%
CN1CCc2c(n(CC(=O)OCc3ccccc3)c3ccc(Cl)cc23)CC1 [Compound No. 75, Benzyl-2-(9-chloro-2,3,4,5-tetrahydro-3-methylazepino[4,5-b]indol-6(1H)-yl)acetate] | -4% | 20%
Cc1ccc2c(c1)c1c(n2/C=C/c2ccccc2)CCN(C)CC1 [Compound No. 229, (E)-3,9-dimethyl-6-styryl-1,2,3,4,5,6-hexahydroazepino[4,5-b]indole] | 94% | 100%
COc1ccc(/C=C/n2c3c(c4cc(C)ccc42)CCN(C)CC3)c(F)c1 [Compound No. 230, (E)-6-(2-fluoro-4-methoxystyryl)-3,9-dimethyl-1,2,3,4,5,6-hexahydroazepino[4,5-b]indole] | 89% | 95%
Cc1ccc2c(c1)c1c(n2CC(=O)N(C)C2CCCCC2)CCN(C)CC1 [Compound No. 232, N-cyclohexyl-2-(3,9-dimethyl-2,3,4,5-tetrahydroazepino[4,5-b]indol-6(1H)-yl)-N-methylacetamide] | 22% | 95%
Cc1ccc2c(c1)c1c(n2/C=C/c2ccccc2F)CCN(C)CC1 [Compound No. 233, (E)-6-(2-fluorostyryl)-3,9-dimethyl-1,2,3,4,5,6-hexahydroazepino[4,5-b]indole] | 94% | 98%
CN1CCc2c(n(/C=C/c3ccc(F)cc3)c3ccc(Cl)cc23)CC1 [Compound No. 234, (E)-9-chloro-6-(4-fluorostyryl)-3-methyl-1,2,3,4,5,6-hexahydroazepino[4,5-b]indole] | 92% | 99%
Cc1ccc2c(c1)c1c(n2/C=C/c2ccc(Cl)cc2)CCN(C)CC1 [Compound No. 235, (E)-6-(4-chlorostyryl)-3,9-dimethyl-1,2,3,4,5,6-hexahydroazepino[4,5-b]indole] | 94% | 97%
CN1CCc2c(n(/C=C/c3ccc(F)c(F)c3)c3ccc(Cl)cc23)CC1 [Compound No. 236, (E)-9-chloro-6-(3,4-difluorostyryl)-3-methyl-1,2,3,4,5,6-hexahydroazepino[4,5-b]indole] | 97% | 99%
CN1CCc2c(n(CCc3ccccc3F)c3ccccc23)CC1 [Compound No. 237, 6-(2-fluorophenethyl)-3-methyl-1,2,3,4,5,6-hexahydroazepino[4,5-b]indole] | 81% | 96%
C/C(=C\n1c2c(c3cc(C)ccc31)CCN(C)CC2)c1ccc(Cl)cc1Cl [Compound No. 238, (E)-6-(2-(2,4-dichlorophenyl)prop-1-enyl)-3,9-dimethyl-1,2,3,4,5,6-hexahydroazepino[4,5-b]indole] | 98% | 98%
C/C(=C\n1c2c(c3cc(Cl)ccc31)CCN(C)CC2)c1ccc(Cl)cc1Cl [Compound No. 239, (E)-9-chloro-6-(2-(2,4-dichlorophenyl)prop-1-enyl)-3-methyl-1,2,3,4,5,6-hexahydroazepino[4,5-b]indole] | 89% | 91%
CN1CCc2c(n(C#Cc3ccc(F)cc3)c3ccc(Cl)cc23)CC1 [Compound No. 281, 9-chloro-6-((4-fluorophenyl)ethynyl)-3-methyl-1,2,3,4,5,6-hexahydroazepino[4,5-b]indole] | 76% | 56%
CN1CCc2c(n(C#Cc3ccc(Cl)cc3)c3ccc(Cl)cc23)CC1 [Compound No. 282, 9-chloro-6-((4-chlorophenyl)ethynyl)-3-methyl-1,2,3,4,5,6-hexahydroazepino[4,5-b]indole] | 87% | 99%
Cc1ccc2c(c1)c1c(n2C(=O)Cc2ccc(F)cc2)CCN(C)CC1 [Compound No. 285, 1-(3,9-dimethyl-2,3,4,5-tetrahydroazepino[4,5-b]indol-6(1H)-yl)-2-(4-fluorophenyl) ethanone] | 74% | 68%
